Experimental data published in PMC12657321, “Pre-clinical evaluation of a potent and effective Pin1-degrading agent in pancreatic cancer” (Molecular Therapy Oncology, 2025).
Non-standard residues stand in square brackets, D forms with d. Residues, ends and D or L forms follow the SMILES beside them. *: point of attachment. Trp(6-Cl) = N[C@@H](Cc1c[nH]c2cc(Cl)ccc12)C(=O)O; Pip = O=C(O)[C@@H]1CCCCN1; ClAc = O=C(CCl)*

Assays:
[1] = Human plasma stability; format: in vitro ADME; conditions: 37°C, up to 6 h, acetonitrile quench, LC-MS/MS
Protocol: (§1) A solution of a Pin1 inhibitor was spiked into blank plasma at 1 μg/mL in various solutions, including an aqueous buffer (1× phosphate-buffered saline; Fisher Scientific, Fair Lawn, NJ), human plasma (Innovative Research Inc., Novi, MI), wild-type mouse plasma (Innovative Research Inc., Novi, MI), plasma form esterase-deficient mice (City of Hope, Duarte, CA), and plasma from Black 6-Cg mice (City of Hope, Duarte, CA).
(§2) The spiked plasma samples were incubated at 37°C for up to 6 h. At each designated time point, a 20 μL aliquot of the incubation sample was removed and quenched in 100 μL of acetonitrile. At the end of the incubation, the quenched samples were vortexed and centrifuged for 10 min at 4°C and 20,000 × g. The resulting supernatant was reconstituted and analyzed by LC-MS/MS.
(§3) Table S2. Stability half-life of agents reported in Table 1 after incubation at 37 °C in various media. Acq represents aqueous buffer composed of 1x phosphate buffered saline (Fisher Scientific, Fair Lawn, NJ); human represents human plasma (Innovative Research Inc., Novi, MI); mouse wt represents wild type mouse plasma (Innovative Research Inc., Novi, MI); mouse ES1e represents plasma form esterase deficient mice (City of Hope, Duarte, CA); mouse B6-Cg represents plasma from black 6-Cg mice (City of Hope, Duarte, CA). See Figure 1 for the chemical structures of these compounds.
(§4) Compound Acq Human Mouse Mouse ES1e Mouse

[2] = Wild-type mouse plasma stability; format: in vitro ADME; conditions: 37°C, up to 6 h, acetonitrile quench, LC-MS/MS, value given in h, read-out: Stability half-life, Mouse WT (converted)
Protocol: as §1, §2, §3, §4

[3] = Stability in plasma from esterase-deficient (ES1e) mice; format: in vitro ADME; conditions: mouse, 37°C, up to 6 h, acetonitrile quench, LC-MS/MS
Protocol: as §1, §2, §3, §4

[4] = system: KPC cells; format: cell-based, mouse; conditions: 72 h
Protocol: The effect of Pin1 degradation by 164B8 on cell viability was assessed using live-cell analysis (IncuCyte S3). […] Furthermore, to evaluate the acute single-dose toxicity of 164B8 in vivo, CD-1 immune-competent mice were exposed to increasing doses of 164B8. […] Therefore, a maximum tolerated dose was not reached (Figure S12).
Figure S11: Mia PaCa-2 and KPC cells were treated with different doses of 164B8, and the
IncuCyte S3 live-cell analysis system was used to monitor the agent’s activity every 3 hours for
(1 picture or pasted object on this page, not shown here)

[5] = 164B8 concentration in tissues of treated mice by LC-MS; format: in vivo, mouse; conditions: for 164B8 conc. (ng/mg) Predicted means (LS means) Adjacent Peritoneum / 164B8 conc. (ng/mg) Predicted means (LS means) Liver / 164B8 conc. (ng/mg) Predicted means (LS means) Tumor: 6 h after last dose, LC-MS, two-way ANOVA LS mean (Figure 7B)
Protocol: To further verify that the observed activity was due to direct inhibition of Pin1 in vivo, we analyzed tumor tissues to measure 164B8 levels and Pin1 degradation in both tumor and normal tissues. At day 14, 6 h after the final intraperitoneal dose, 164B8 was detected and quantified in tumor tissue via liquid chromatography-mass spectrometry (LC-MS). Significant levels of 164B8 were detected in the liver, tumor-adjacent peritoneum, and tumor tissues collected from mice treated with either 30 mg/kg or 60 mg/kg (Figure 7A). The average tumor values were 0.62 ng/mg for mice treated with 30 mg/kg 164B8 and approximately 8 ng/mg for those treated with 60 mg/kg 164B8, compared with the vehicle control (0.03 ng/mg). In mice treated with 164B8 at 60 mg/kg, we observed enrichment of 164B8 in tumor tissues compared with adjacent normal tissues (mean: 3.65 vs. 8 ng/mg, p = 0.035) and normal liver tissues (mean: 0.75 vs. 8 ng/mg, p = 0.0003). For the 30 mg/kg dose, drug levels were numerically higher in tumor tissue (0.62 ng/mg) compared with adjacent normal peritoneum (0.11 ng/mg) and liver (0.10 ng/mg), although these differences were not statistically significant after adjustment for multiple comparisons (Figures 7A and 7B). Likewise, Pin1 levels in tumor tissues were detected via western blotting (Figure 7C).
Figure 7 Determination of Pin1 levels and 164B8 concentration in treated mice Pin1 drug concentration and Pin1 levels in tumors were measured 6 h after the last dose of 164B8 treatment by LC-MS (A and B) and western blot (C), respectively. Drug concentrations among the three groups were compared using two-way ANOVA in Prism, accounting for interactions (D). Tukey’s multiple comparison test was used to compare multiple groups (∗∗∗p = 0.0003, ∗p = 0.035). Pin1 levels were compared among the three groups after normalizing to β-actin (loading control) using one-way ANOVA and adjusting for multiple comparisons (∗∗∗p < 0.001). TEXT PRINTED IN THE PICTURE: (B) 164B8: 164B8 conc. (ng/mg) Predicted means (LS means) Liver: 0.1017 (30mg/kg); 164B8 conc. (ng/mg) Predicted means (LS means) Adjacent Peritoneum: 0.1133 (30mg/kg); 164B8 conc. (ng/mg) Predicted means (LS means) Tumor: 0.6183 (30mg/kg); 164B8 conc. (ng/mg) Predicted means (LS means) Column means: 0.2778 (30mg/kg); 164B8 conc. (ng/mg) Predicted means (LS means) Liver: 0.7550 (60mg/kg); 164B8 conc. (ng/mg) Predicted means (LS means) Adjacent Peritoneum: 3.648 (60mg/kg); 164B8 conc. (ng/mg) Predicted means (LS means) Tumor: 8.005 (60mg/kg); 164B8 conc. (ng/mg) Predicted means (LS means) Column means: 4.136 (60mg/kg)
Bioluminescent imaging (BLI) was performed one week post-inoculation. Based on imaging intensity, mice were re-grouped to ensure six animals per group. The PIN1 inhibitor was administered via intraperitoneal injection at doses of 30 mg/kg or 60 mg/kg, once daily, 5 days per week for 2 weeks. Tumor engraftment and growth were monitored by in vivo BLI. D-luciferin potassium salt was dissolved in sterile PBS to a final concentration of 16.6 mg/mL and mice were injected intraperitoneally with D-luciferin solution (0.139 g luciferin/kg body weight), then imaged 10–15 min after luciferin injection using an IVIS Spectrum Imaging System (Lago X) with identical exposure times and binning settings for all mice. Bioluminescence signal intensity was quantified as total flux (photons/s) within a region of interest (ROI) using Aura image software. BLI was performed once every week during the treatment. After 2 weeks of treatment, mice were euthanized 6 h after the final dose. Blood samples were collected via cardiac puncture, and normal peritoneum, intestine, and liver tissues were harvested and snap-frozen on dry ice.

CNC(=O)[C@H](Cc1c[nH]c2ccccc12)NC(=O)[C@@H]1CCCCN1C(=O)[C@H](Cc1c[nH]c2cc(Cl)ccc12)NC(=O)CCl [164B8] (ClAc-[Trp(6-Cl)]-[Pip]-Trp-NHMe)
half-life at 1 μg/mL [1]: ~4.5 h
half-life at 1 μg/mL [2]: ~4.5 h
half-life at 1 μg/mL [3]: > 5 h
EC50 [4]: 5.3 µM
164B8 conc. (ng/mg) Predicted means (LS means) Adjacent Peritoneum ([5]; 30mg/kg): 0.1133 ng/mg
164B8 conc. (ng/mg) Predicted means (LS means) Liver ([5]; 30mg/kg): 0.1017 ng/mg
164B8 conc. (ng/mg) Predicted means (LS means) Tumor ([5]; 30mg/kg): 0.6183 ng/mg
164B8 conc. (ng/mg) Predicted means (LS means) Adjacent Peritoneum ([5]; 60mg/kg): 3.648 ng/mg
164B8 conc. (ng/mg) Predicted means (LS means) Liver ([5]; 60mg/kg): 0.7550 ng/mg
164B8 conc. (ng/mg) Predicted means (LS means) Tumor ([5]; 60mg/kg): 8.005 ng/mg
164B8 conc. (ng/mg) Predicted means (LS means) Column means ([5]; 60mg/kg, mean over liver, adjacent peritoneum and tumor (Figure 7B)): 4.136 ng/mg
